For the first assay, the target named is purified αllbβ3 receptor (Homo sapiens, UniProt P05106+P08514). The assay can be described thus: similar competitive binding assay with 125I-echistatin on αllbβ3 receptor, used for the specificity index. Conditions: Table 13; specificity index IC50 αllbβ3/ IC50 αvβ3. As for the experimental part: To measure the relative affinity of the test compounds for αvβ3 receptors versus affinity for αllbβ3 receptors, similar competitive assays were carried out using purified αllbβ3 receptor and ^125I-echistatin (iodinated using the lactoperoxidase method). The specificity index, which is a measure of the relative binding affinity for αvβ3, versus αllbβ3, may be determined by dividing the IC50 value for αllbβ3 by the IC50 value for αvβ3.
Turning to `CC(=O)N(Cc1ccc(C(=O)NC(CC(=O)O)c2ccccc2)cc1)Cc1nc2ccccc2[nH]1` (stereo not shown) [Example 5-66], the “Specificity α11bβ3 / αvβ3” value stood at 0.4.
On to `COCC(=O)N(Cc1ccc(C(=O)NC(CC(=O)O)c2ccccc2)cc1)Cc1nc2ccccc2[nH]1` (stereo not shown) [Example 5-67], for which the “Specificity α11bβ3 / αvβ3” value is listed as 0.5.
For the molecule `O=C(O)CC(NC(=O)c1ccc(CN(Cc2nc3ccccc3[nH]2)C(=O)CCc2ccccc2)cc1)c1ccccc1` (stereo not shown) [Example 5-68], the “Specificity α11bβ3 / αvβ3” value amounted to 0.4.
Consider `O=C(O)CC(NC(=O)c1ccc(CN(Cc2nc3ccccc3[nH]2)C(=O)CCC2CCCC2)cc1)c1ccccc1` (stereo not shown) [Example 5-69], for which the “Specificity α11bβ3 / αvβ3” value is listed as 0.4.

The assay is the same for the next values; noted with them: Table 14; specificity index IC50 αllbβ3/ IC50 αvβ3.
On to `O=C(NC(CNC(=O)c1ccc(CNCCc2nc3ccccc3[nH]2)cc1)C(=O)O)OCc1ccccc1` (stereo not shown) [Example 5-70], for which the “Specificity αIIβ3 / αvβ3” value worked out at 0.2.
In the case of `CC(=O)N(CCc1nc2ccccc2[nH]1)Cc1ccc(C(=O)NCC(NC(=O)OCc2ccccc2)C(=O)O)cc1` (stereo not shown) [Example 5-71], the “Specificity αIIβ3 / αvβ3” value came out at 0.3.
With `COCC(=O)N(CCc1nc2ccccc2[nH]1)Cc1ccc(C(=O)NCC(NC(=O)OCc2ccccc2)C(=O)O)cc1` (stereo not shown) [Example 5-72], the “Specificity αIIβ3 / αvβ3” value is recorded as 0.5.
On the same count and under the same terms, the figure for `O=C(NC(CNC(=O)c1ccc(CN(CCc2nc3ccccc3[nH]2)C(=O)CCc2ccccc2)cc1)C(=O)O)OCc1ccccc1` (stereo not shown) [Example 5-73] is 0.7.
With `O=C(NC(CNC(=O)c1ccc(CN(CCc2nc3ccccc3[nH]2)C(=O)CCC2CCCC2)cc1)C(=O)O)OCc1ccccc1` (stereo not shown) [Example 5-74], the “Specificity αIIβ3 / αvβ3” value amounted to 0.6.

The same assay, now with this note: Table 15; specificity index IC50 αllbβ3/ IC50 αvβ3.
For `CC(NCc1ccc(C(=O)NC[C@H](NC(=O)OCc2ccccc2)C(=O)O)cc1)c1nc2ccccc2[nH]1` (stereo partly shown) [Example 5-75], the “SPECIFICITY αIIbβ3 / αvβ3” value was 10.2.
Turning to `CC(=O)N(Cc1ccc(C(=O)NC[C@H](NC(=O)OCc2ccccc2)C(=O)O)cc1)C(C)c1nc2ccccc2[nH]1` (stereo partly shown) [Example 5-76], the “SPECIFICITY αIIbβ3 / αvβ3” value stood at 6.7.
Same read-out and setting: under `COCC(=O)N(Cc1ccc(C(=O)NC[C@H](NC(=O)OCc2ccccc2)C(=O)O)cc1)C(C)c1nc2ccccc2[nH]1` (stereo partly shown) [Example 5-77] stands 12.4; under `CC(c1nc2ccccc2[nH]1)N(Cc1ccc(C(=O)NC[C@H](NC(=O)OCc2ccccc2)C(=O)O)cc1)C(=O)CCc1ccccc1` (stereo partly shown) [Example 5-78], 33.9; under `CC(c1nc2ccccc2[nH]1)N(Cc1ccc(C(=O)NC[C@H](NC(=O)OCc2ccccc2)C(=O)O)cc1)C(=O)CCC1CCCC1` (stereo partly shown) [Example 5-79], 19.0.

The same assay, now with this note: Table 16; specificity index IC50 αllbβ3/ IC50 αvβ3.
Turning to `COCC(=O)N(Cc1ccc(C(=O)NC[C@H](NS(=O)(=O)c2ccccc2)C(=O)O)cc1)Cc1nc2ccccc2[nH]1` [Example 5-80], the “Specificity αllbβ3 / αvβ3” value is 11.
As for `O=C(NC[C@H](NS(=O)(=O)c1ccccc1)C(=O)O)c1ccc(CN(Cc2nc3ccccc3[nH]2)C(=O)NC2CCCCC2)cc1` [Example 5-81], the “Specificity αllbβ3 / αvβ3” value is 8.0.
On the same count and under the same terms, the figure for `CCCCOC(=O)N[C@@H](CNC(=O)c1ccc(CN(Cc2nc3ccccc3[nH]2)C(=O)NC2CCCCC2)cc1)C(=O)O` [Example 5-82] is 1259.

The target of the next assay is T1, αvβ3 receptor (purified from human placenta) (Homo sapiens, UniProt P05106+P06756).
T1 construct: αvβ3 receptor (purified from human placenta); from tissue; host or cells: human placenta
The assay can be described thus: competition radioligand binding assay, 125I-echistatin to αvβ3 receptor. Conditions: Table 13; αvβ3, inhibition of specific 125I-echistatin binding. As for the experimental part: The following assay procedure, which is a competition radioligand binding assay, was carried out to determine the activity of the foregoing compounds as αvβ3 antagonists. The competitive assay procedure described in Kumar, et. al., "Biochemical Characterization Of The Binding Of Echistatin To Integrin αvβ3 Receptor", Journal Of Pharmacology And Experimental Therapeutics, Vol. 283, No. 2, pp. 843-853 (1997) was employed. Thus, binding of ^125I-echistatin (radiolabeled by the chloramine-T method to a specific activity of 2000 Ci/mmol (Amersham, Chicago, Il.)) to αvβ3 receptor (purified from human placenta), both prepared as described in Kumar, et al., was competed by the compounds prepared in the foregoing examples. Purified αvβ3 receptor was coated onto Microlite-2 plates at a concentration of 50 ng/well. ^125I-echistatin was added to the wells to a final concentration of 0.05 nM in binding buffer (50 µl/well) in the presence of the competing test compound. The competing test compounds were employed at serially diluted concentrations ranging from 1 pM to 100 nM. After a 3 hour incubation at room temperature, the wells were washed, and radioactivity, reflecting binding by ^125 I-echistatin to αvβ3 receptors, was determined with Top Count (Packard). Each data point is an average of values from triplicate wells.
Specific binding of ^125I-echistatin was calculated as the difference between the amount of ^125I-echistatin bound in the absence (total binding) and the amount of ^125I-echistatin bound in the presence of a 200-fold molar excess of unlabeled echistatin (nonspecific binding). The efficacy of the test compounds for inhibiting specific binding of ^125I-echistatin to αvβ3 receptors was determined by plotting a graph of specific binding (y-axis) as a function of test compound concentration (x-axis). The concentration of test compound required to inhibit 50% of the specific binding (IC50) was determined from the plot. The IC50 may be directly converted mathematically to Ki, which is a measure of the receptor binding affinity of the compounds under the defined assay conditions.
As to `CC(=O)N(Cc1ccc(C(=O)NC(CC(=O)O)c2ccccc2)cc1)Cc1nc2ccccc2[nH]1` (stereo not shown) [Example 5-66], the IC50 stood at 9470 nM.
Still for that read-out and setting: the figure for `COCC(=O)N(Cc1ccc(C(=O)NC(CC(=O)O)c2ccccc2)cc1)Cc1nc2ccccc2[nH]1` (stereo not shown) [Example 5-67] is 7370 nM; for `O=C(O)CC(NC(=O)c1ccc(CN(Cc2nc3ccccc3[nH]2)C(=O)CCc2ccccc2)cc1)c1ccccc1` (stereo not shown) [Example 5-68] it is 6630 nM.
On to `O=C(O)CC(NC(=O)c1ccc(CN(Cc2nc3ccccc3[nH]2)C(=O)CCC2CCCC2)cc1)c1ccccc1` (stereo not shown) [Example 5-69], for which the half-maximal inhibitory concentration (IC50) came to 10500 nM.

Staying with this assay, now noted: Table 14; αvβ3, inhibition of specific 125I-echistatin binding.
Molecule `O=C(NC(CNC(=O)c1ccc(CNCCc2nc3ccccc3[nH]2)cc1)C(=O)O)OCc1ccccc1` (stereo not shown) [Example 5-70] registered an IC50 of 413 nM.
As to `CC(=O)N(CCc1nc2ccccc2[nH]1)Cc1ccc(C(=O)NCC(NC(=O)OCc2ccccc2)C(=O)O)cc1` (stereo not shown) [Example 5-71], the IC50 was determined as 266 nM.
Same read-out and setting: the figure for `COCC(=O)N(CCc1nc2ccccc2[nH]1)Cc1ccc(C(=O)NCC(NC(=O)OCc2ccccc2)C(=O)O)cc1` (stereo not shown) [Example 5-72] is 559 nM; for `O=C(NC(CNC(=O)c1ccc(CN(CCc2nc3ccccc3[nH]2)C(=O)CCc2ccccc2)cc1)C(=O)O)OCc1ccccc1` (stereo not shown) [Example 5-73] it is 170 nM; for `O=C(NC(CNC(=O)c1ccc(CN(CCc2nc3ccccc3[nH]2)C(=O)CCC2CCCC2)cc1)C(=O)O)OCc1ccccc1` (stereo not shown) [Example 5-74] it is 238 nM.

The assay is the same for the next values; noted with them: Table 15; αvβ3, inhibition of specific 125I-echistatin binding.
In turn, `CC(NCc1ccc(C(=O)NC[C@H](NC(=O)OCc2ccccc2)C(=O)O)cc1)c1nc2ccccc2[nH]1` (stereo partly shown) [Example 5-75] returned an IC50 of 306 nM.
The same measure, in the same setting: the figure for `CC(=O)N(Cc1ccc(C(=O)NC[C@H](NC(=O)OCc2ccccc2)C(=O)O)cc1)C(C)c1nc2ccccc2[nH]1` (stereo partly shown) [Example 5-76] is 50 nM.
Same read-out and setting: under `COCC(=O)N(Cc1ccc(C(=O)NC[C@H](NC(=O)OCc2ccccc2)C(=O)O)cc1)C(C)c1nc2ccccc2[nH]1` (stereo partly shown) [Example 5-77] stands 49 nM; under `CC(c1nc2ccccc2[nH]1)N(Cc1ccc(C(=O)NC[C@H](NC(=O)OCc2ccccc2)C(=O)O)cc1)C(=O)CCc1ccccc1` (stereo partly shown) [Example 5-78], 21 nM.
Same read-out and setting: under `CC(c1nc2ccccc2[nH]1)N(Cc1ccc(C(=O)NC[C@H](NC(=O)OCc2ccccc2)C(=O)O)cc1)C(=O)CCC1CCCC1` (stereo partly shown) [Example 5-79] stands 33 nM.

Still in this assay, the particulars now being: Table 16; αvβ3, inhibition of specific 125I-echistatin binding.
As to `COCC(=O)N(Cc1ccc(C(=O)NC[C@H](NS(=O)(=O)c2ccccc2)C(=O)O)cc1)Cc1nc2ccccc2[nH]1` [Example 5-80], the IC50 came to 4.4 nM.
Take `O=C(NC[C@H](NS(=O)(=O)c1ccccc1)C(=O)O)c1ccc(CN(Cc2nc3ccccc3[nH]2)C(=O)NC2CCCCC2)cc1` [Example 5-81]: the IC50 came to 8.2 nM.
With `CCCCOC(=O)N[C@@H](CNC(=O)c1ccc(CN(Cc2nc3ccccc3[nH]2)C(=O)NC2CCCCC2)cc1)C(=O)O` [Example 5-82], the IC50 was 2.2 nM. Against the preceding molecule, the IC50 is about 3.7-fold lower.

The IC50 is the midpoint of a concentration-inhibition curve. A lower IC50 goes with higher potency.
